Measured values reported in ChEMBL document CHEMBL3045088, “Synthesis and cytotoxic activity of genistein derivatives” (2010).

Columns and labels:
Format in all cases: functional
HL-60 = experiment: Growth inhibition of Homo sapiens (human) HL60 cells by MTT assay
HT-29 = experiment: Growth inhibition of Homo sapiens (human) HT-29 cells by MTT assay
SGC-7901 = experiment: Growth inhibition of Homo sapiens (human) SGC7901 cells by MTT assay

## CCCCCCCCCCOc1ccc(-c2coc3cc(OC(F)F)cc(OCCCCCCCCCC)c3c2=O)cc1 [4',5-DI-N-DECOXY-7-GEM-DIFLUOROMETHYLENATED GENISTEIN]
HL-60
  GI: 1.63 µM
HT-29
  GI: 14.26 µM
SGC-7901
  GI: 3.3 µM

## CCCCCCCOc1ccc(-c2coc3cc(OC(F)F)cc(OCCCCCCC)c3c2=O)cc1 [4',5-DI-N-HEPTOXY-7-GEM-DIFLUOROMETHYLENATED GENISTEIN]
HL-60
  GI: 1.41 µM
HT-29
  GI: 5.25 µM
SGC-7901
  GI: 3.39 µM

## CCCCCCCCOc1ccc(-c2coc3cc(OC(F)F)cc(OCCCCCCCC)c3c2=O)cc1 [4',5-DI-N-OCTOXY-7-GEM-DIFLUOROMETHYLENATED GENISTEIN]
HL-60
  GI: 0.47 µM
HT-29
  GI: 1.86 µM
SGC-7901
  GI: 1.64 µM

## CCCOc1ccc(-c2coc3cc(OC(F)F)cc(OCCC)c3c2=O)cc1 [4',5-DI-N-PROPOXY-7-GEM-DIFLUOROMETHYLENATED GENISTEIN]
HL-60
  GI: 0.54 µM
HT-29
  GI: 2.5 µM
SGC-7901
  GI: 2.15 µM

## O=c1c(-c2ccc(OCc3ccccc3)cc2)coc2cc(OC(F)F)cc(OCc3ccccc3)c12 [4',5-DIBENZYLOXY-7-GEM-DIFLUOROMETHYLENATED GENISTEIN]
HL-60
  GI: 1.29 µM
HT-29
  GI: 2.82 µM
SGC-7901
  GI: 4.24 µM

## CCOc1ccc(-c2coc3cc(OC(F)F)cc(OCC)c3c2=O)cc1 [4',5-DIETHOXY-7-GEM-DIFLUOROMETHYLENATED GENISTEIN]
HL-60
  GI: 1.75 µM
HT-29
  GI: 11.2 µM
SGC-7901
  GI: 5.51 µM

## COc1ccc(-c2coc3cc(OC(F)F)cc(OC)c3c2=O)cc1 [4',5-DIMETHOXY-7-GEM-DIFLUOROMETHYLENATED GENISTEIN]
HL-60
  GI: 4.61 µM
HT-29
  GI: 9.83 µM
SGC-7901
  GI: 6.41 µM

## O=c1c(-c2ccc(OC(F)F)cc2)coc2cc(OC(F)F)cc(O)c12 [4',7-DI-GEM-DIFLUOROMETHYLENATED GENISTEIN]
HL-60
  GI: 5.5 µM
HT-29
  GI: 5.35 µM
SGC-7901
  GI: 5.54 µM

## CC(=O)Oc1ccc(-c2coc3cc(OC(C)=O)cc(O)c3c2=O)cc1 [4',7-DIACETOXY-5-HYDROXYGENISTEIN]
HL-60
  GI: 5.86 µM
HT-29
  GI: 19.4 µM
SGC-7901
  GI: 11.24 µM

## C=CCOc1ccc(-c2coc3cc(OCC=C)cc(O)c3c2=O)cc1 [4',7-DIALLYLOXY-5-HYDROXYGENISTEIN]
HL-60
  GI: 3.44 µM
HT-29
  GI: 14.2 µM
SGC-7901
  GI: 6.51 µM

## CCCCCCCCCCOc1ccc(-c2coc3cc(OCCCCCCCCCC)cc(O)c3c2=O)cc1 [4',7-DIDECYLOXY-5-HYDROXYGENISTEIN]
HL-60
  GI: 3.09 µM
HT-29
  GI: 11.6 µM
SGC-7901
  GI: 4.27 µM

## COc1ccc(-c2coc3cc(OC)cc(O)c3c2=O)cc1 [4',7-DIMETHOXY-5-HYDROXYGENISTEIN]
HL-60
  GI: 5.14 µM
HT-29
  GI: 4.18 µM
SGC-7901
  GI: 7.78 µM

## CCCCCCCCOc1ccc(-c2coc3cc(OCCCCCCCC)cc(O)c3c2=O)cc1 [4',7-DIOCTYLOXY-5-HYDROXYGENISTEIN]
HL-60
  GI: 1.62 µM
HT-29
  GI: 10.8 µM
SGC-7901
  GI: 4.82 µM

## CC(=O)Oc1cc(O)c2c(=O)c(-c3ccc(O)cc3)coc2c1 [7-ACETOXY-4',5-DIHYDROXYGENISTEIN]
HL-60
  GI: 4.95 µM
HT-29
  GI: 4.21 µM
SGC-7901
  GI: 8.11 µM

## O=c1c(-c2ccc(O)cc2)coc2cc(OC(F)F)cc(O)c12 [7-GEM-DIFLUOROMETHYLENATED GENISTEIN]
HL-60
  GI: 3.53 µM
HT-29
  GI: 4.56 µM
SGC-7901
  GI: 4.59 µM

## O=c1c(-c2ccc(O)cc2)coc2cc(O)cc(O)c12 [GENISTEIN]
HL-60
  GI: 4.82 µM
HT-29
  GI: 4.11 µM
SGC-7901
  GI: 5.78 µM

## COc1cc(O)c2c(=O)c(-c3ccc(O)cc3)coc2c1 [PRUNETIN]
HL-60
  GI: 4.35 µM
HT-29
  GI: 5.11 µM
SGC-7901
  GI: 3.94 µM
